Laboratory results reported in US20100292231A1, “Indazole Compounds for Treating Inflammatory Disorders, Demyelinating Disorders and Cancers” (priority 2007, published 2010).

Columns and labels:
MV-4-11 = experiment: MTS cellular proliferation assay; assay type: cell-based; conditions: Homo sapiens, MV4-11, 72 hour incubation, read-out: Growth inhibitory activity (in vivo EC50 nM)
Excerpt: (§1) The viability of Flt3 expressing cells can be evaluated using a tetrazolium salt reduction cell-based assay. […] BaF3, both wild type and mutant, as well as transfected strains, MV4-11 and MOLM14 are well-characterized Flt3-dependent humanized or human cell lines which express active Flt3 receptors (see, Yee et al. Blood (2002)100 (8):2941-2949; Levis et al. (2002) 99(11): 3885-3891). These cell lines were used to determine the ability of the compounds provided herein to inhibit Flt3 in intact cells. In each case, and by methods known to those practiced in the art of cell culture, proliferation was measured after 72 hour incubation with the compounds provided herein using a standard MTS protocol (Promega Cat #5430 “Cell Titer 96 Aqueous Non-radioactive Cell Proliferation Assay”).
(§2) In general, cells were plated at 10,000-20,000 cells per well in DMEM medium with 0.5% serum. The compound plate was set up by aliquoting into column 1 of a 96 well 300 ul polypropylene plate, the negative control (DMSO), aliquoting into column 12 the positive control and titrating the test compound in serial dilutions into columns 2-1 l. An aliquot from each well of the compound plate was transferred to the plated cells and then incubated @ […] in 5% CO2. [00538] MTS tetrazolium compound (Owen's reagent) was thawed in a H2O bath. 20 μl of MTS tetrazolium was added to each well of optical plate and the cells were incubated @ 37° C. in 5% CO2 for 2 hours. The absorbance measured at 490 nm using a microplate reader.

BaF3-D835N = target: T1, BaF3-D835N (Homo sapiens, UniProt P36888, D835N, cells depend on it); experiment: MTS cellular proliferation assay; assay type: cell-based; conditions: 72 hour incubation, read-out: Growth inhibitory activity (in vivo EC50 nM)
T1 sequence (P36888 1-993 D835N): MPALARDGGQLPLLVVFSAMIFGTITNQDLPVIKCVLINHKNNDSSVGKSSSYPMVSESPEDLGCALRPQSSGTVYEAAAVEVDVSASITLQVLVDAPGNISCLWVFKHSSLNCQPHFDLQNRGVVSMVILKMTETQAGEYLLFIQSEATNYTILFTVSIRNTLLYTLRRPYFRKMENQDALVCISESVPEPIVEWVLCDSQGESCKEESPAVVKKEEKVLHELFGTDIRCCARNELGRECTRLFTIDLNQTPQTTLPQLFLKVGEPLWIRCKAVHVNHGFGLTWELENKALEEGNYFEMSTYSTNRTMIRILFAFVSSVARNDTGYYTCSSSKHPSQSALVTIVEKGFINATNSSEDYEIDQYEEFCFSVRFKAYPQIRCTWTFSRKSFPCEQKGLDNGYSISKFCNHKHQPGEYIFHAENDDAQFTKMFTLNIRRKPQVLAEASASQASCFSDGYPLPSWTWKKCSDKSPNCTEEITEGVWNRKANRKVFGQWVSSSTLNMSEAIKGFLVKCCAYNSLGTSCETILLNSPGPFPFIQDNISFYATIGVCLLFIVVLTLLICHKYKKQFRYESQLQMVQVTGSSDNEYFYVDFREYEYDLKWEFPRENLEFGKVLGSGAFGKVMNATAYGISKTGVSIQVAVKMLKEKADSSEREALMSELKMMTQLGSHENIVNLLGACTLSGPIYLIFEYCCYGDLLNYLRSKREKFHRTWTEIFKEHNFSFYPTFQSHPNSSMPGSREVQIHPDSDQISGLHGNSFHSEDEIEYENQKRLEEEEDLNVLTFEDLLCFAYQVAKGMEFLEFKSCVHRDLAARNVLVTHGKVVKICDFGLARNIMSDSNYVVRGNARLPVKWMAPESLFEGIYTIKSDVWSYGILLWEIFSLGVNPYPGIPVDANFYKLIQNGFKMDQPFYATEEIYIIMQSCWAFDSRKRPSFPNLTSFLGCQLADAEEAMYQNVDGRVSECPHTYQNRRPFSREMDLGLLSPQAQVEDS
Excerpt: as §1, §2

[1] = test system: Raw264.7 (murine macrophage-like cells); experiment: sulforhodamine B (SRB) cytotoxicity assay; assay type: cell-based; conditions: Mus musculus, RAW264.7, 144 h; 25 μM highest concentration, diluted 1:5; 6 days; read-out: IC50 Measured Against Raw264.7 Cell Line
RPS6KA4 (MSK2) = target: T2, RPS6KA4 (MSK2) (Homo sapiens, UniProt O75676); experiment: SelectScreen kinase specificity survey; assay type: biochemical; conditions: estimated, abridged dose response curve, read-out: Kinase inhibitory activity EC50
T2 construct: purchased Invitrogen, Inc. (SelectScreen platform)
Protocol: (§3) Testing of the compounds described in this invention was carried out using the SelectScreen™ platform from Invitrogen, Inc. (Carlsbad. Calif., USA) and the details of its performance are readily viewed via the web by linking to: http://www.invitrogen.com/downloads/SelectScrn_Brochure.pdf.
(§4) Briefly, the approach is based on treating each specific kinase with a unique substrate and optical reporter system in the presence of ATP at 100 micromolar. In controls, the substrate is phosphorylated and a baseline optimal response is recorded.
(§5) The compounds were then re-tested by adding graded amounts of putative inhibitor which were added in 5 separate increments to generate a dose response curve. The latter is obtained by fitting to a 4 parameter Hill equation, a sigmoid saturation equation.
(§6) The same assay system described in Example 2 can be applied in the determination of kinase specificity. It is well understood by medicinal chemists in the development of kinase inhibitors that the resulting molecules often lack specificity. Not only are homologous kinases inhibited by the same class of compounds, but also non-homologous kinases can be affected by allosteric, induced, activated vs inactivated conformation, and protein folding interactions with the putative inhibitor, which otherwise had been designed to be specific. These off target effects are difficult to predict and can only be ruled in or out by empirically surveying a large set of kinases. It is also understood that changes to scaffolds and variation in their chemical decorations may influence the extent of promiscuity in the patterns of kinase inhibition across kinase classes.
(§7) The following experiment was conducted to address this issue. The indazole compound (IV), described in Example 2 and representative of the new genus was tested along with Symadex against a panel of 230 kinases representative of all known kinases classes. Included in the survey were the Flt3, its mutant, and close relatives in the Class III receptor tyrosine kinase class, together with serine-threonine kinases and atypical kinases many of which share no homology of active site with Flt3 as shown, for example, in the respective “genecard” for each kinase and available for inspection at on the web at http://www.genecards.org/.
(§8) Table 3 lists the estimated EC50 values from an abridged dose response curve for Symadex (C-1311) and CF-123. The kinases are listed alphabetically by Group and Family.

PRKCN (PKD3, PRKD3) = target: T3, PRKCN (PKD3, PRKD3) (Homo sapiens, UniProt O94806); experiment: SelectScreen kinase specificity survey; assay type: biochemical; conditions: estimated, abridged dose response curve, read-out: Kinase inhibitory activity EC50
T3 construct: purchased Invitrogen, Inc. (SelectScreen platform)
Protocol: as §3, §4, §5, §6, §7, §8

STK4 (MST1) = target: T4, STK4 (MST1) (Homo sapiens, UniProt Q13043); experiment: SelectScreen kinase specificity survey; assay type: biochemical; conditions: estimated, abridged dose response curve, read-out: Kinase inhibitory activity EC50
T4 construct: purchased Invitrogen (SelectScreen platform)
Protocol: as §3, §4, §5, §6, §7, §8

T3 sequence (O94806 whole entry): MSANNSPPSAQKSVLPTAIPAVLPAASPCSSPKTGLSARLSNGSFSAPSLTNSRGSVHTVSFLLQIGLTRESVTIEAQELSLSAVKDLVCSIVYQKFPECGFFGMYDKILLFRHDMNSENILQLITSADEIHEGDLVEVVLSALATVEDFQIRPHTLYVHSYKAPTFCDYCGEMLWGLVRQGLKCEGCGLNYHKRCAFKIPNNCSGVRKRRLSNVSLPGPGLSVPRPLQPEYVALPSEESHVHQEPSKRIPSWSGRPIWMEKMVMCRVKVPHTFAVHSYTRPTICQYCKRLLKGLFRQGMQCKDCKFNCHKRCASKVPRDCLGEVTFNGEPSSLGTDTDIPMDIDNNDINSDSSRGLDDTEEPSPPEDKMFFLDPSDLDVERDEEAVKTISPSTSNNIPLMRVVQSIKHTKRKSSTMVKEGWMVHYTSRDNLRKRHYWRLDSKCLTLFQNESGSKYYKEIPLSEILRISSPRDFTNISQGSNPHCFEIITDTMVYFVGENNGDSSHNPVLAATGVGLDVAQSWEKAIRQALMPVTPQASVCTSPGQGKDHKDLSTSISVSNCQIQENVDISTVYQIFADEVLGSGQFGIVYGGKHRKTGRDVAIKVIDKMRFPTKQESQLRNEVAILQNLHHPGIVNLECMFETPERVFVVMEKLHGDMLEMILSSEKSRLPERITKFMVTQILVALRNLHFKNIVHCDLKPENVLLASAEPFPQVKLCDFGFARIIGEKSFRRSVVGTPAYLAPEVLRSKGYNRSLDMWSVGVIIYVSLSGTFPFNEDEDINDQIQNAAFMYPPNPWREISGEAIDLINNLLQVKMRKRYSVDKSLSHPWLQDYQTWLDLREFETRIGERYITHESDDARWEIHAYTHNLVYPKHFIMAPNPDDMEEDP
T4 sequence (Q13043 whole entry): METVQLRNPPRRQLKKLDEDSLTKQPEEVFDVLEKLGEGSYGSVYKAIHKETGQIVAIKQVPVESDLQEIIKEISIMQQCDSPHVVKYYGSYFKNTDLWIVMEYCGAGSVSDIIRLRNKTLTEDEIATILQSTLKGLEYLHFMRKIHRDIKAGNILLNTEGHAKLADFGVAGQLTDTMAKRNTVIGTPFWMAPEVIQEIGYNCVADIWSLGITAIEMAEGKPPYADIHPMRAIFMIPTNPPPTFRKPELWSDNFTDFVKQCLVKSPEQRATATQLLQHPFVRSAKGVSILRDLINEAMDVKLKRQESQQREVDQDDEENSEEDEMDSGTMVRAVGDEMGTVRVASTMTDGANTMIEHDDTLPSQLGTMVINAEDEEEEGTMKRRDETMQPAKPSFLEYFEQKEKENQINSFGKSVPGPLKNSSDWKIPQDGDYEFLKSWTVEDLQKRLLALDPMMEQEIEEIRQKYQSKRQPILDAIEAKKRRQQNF
T2 sequence (O75676 whole entry): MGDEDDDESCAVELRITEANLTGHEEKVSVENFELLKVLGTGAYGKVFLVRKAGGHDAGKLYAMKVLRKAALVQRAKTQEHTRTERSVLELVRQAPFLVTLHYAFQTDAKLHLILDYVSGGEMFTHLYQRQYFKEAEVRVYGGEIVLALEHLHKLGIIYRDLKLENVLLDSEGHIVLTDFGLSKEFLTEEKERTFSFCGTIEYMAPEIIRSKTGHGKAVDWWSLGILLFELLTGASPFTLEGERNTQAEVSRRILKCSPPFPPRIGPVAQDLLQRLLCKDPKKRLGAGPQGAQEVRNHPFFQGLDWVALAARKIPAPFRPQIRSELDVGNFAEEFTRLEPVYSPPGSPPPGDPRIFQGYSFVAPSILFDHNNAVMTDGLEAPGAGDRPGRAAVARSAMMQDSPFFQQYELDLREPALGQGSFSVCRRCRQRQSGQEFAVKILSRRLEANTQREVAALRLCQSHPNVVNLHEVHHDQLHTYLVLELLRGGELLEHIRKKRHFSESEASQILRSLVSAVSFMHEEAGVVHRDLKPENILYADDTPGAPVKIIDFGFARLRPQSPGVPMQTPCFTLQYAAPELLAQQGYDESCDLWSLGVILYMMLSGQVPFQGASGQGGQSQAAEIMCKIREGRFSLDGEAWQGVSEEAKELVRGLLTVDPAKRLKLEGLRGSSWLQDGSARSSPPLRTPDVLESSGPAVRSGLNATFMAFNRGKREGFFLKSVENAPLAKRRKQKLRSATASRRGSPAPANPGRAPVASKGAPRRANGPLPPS

| EC50 (MV-4-11) [nM] | EC50 (BaF3-D835N) [nM] | Compound | IC50 [1] [nM] | EC50 (RPS6KA4 (MSK2)) [nM] | EC50 (PRKCN (PKD3, PRKD3)) [nM] | EC50 (STK4 (MST1)) [nM] |
| --- | --- | --- | --- | --- | --- | --- |
| 184 | 316 | CN(C)CCCCCNc1ccc2ncn3c4ccc5[nH]ncc5c4c(=O)c1c23 [(III)] |  |  |  |  |
|  |  | O=c1c2c(NCCCN3CCOCC3)ccc3ncn(c4ccc5[nH]ncc5c14)c32 [(X)] | 2.7 |  |  |  |
|  |  | CC(CCN1CCOCC1)Nc1ccc2ncn3c4ccc5[nH]ncc5c4c(=O)c1c23 (stereo not drawn) [(XVI)] | 25.7 |  |  |  |
|  |  | CN1CCN(CCCNc2ccc3ncn4c5ccc6[nH]ncc6c5c(=O)c2c34)CC1 [(XVII)] | 2.6 |  |  |  |
| 12 | 12 | CN(C)CCCNc1ccc2ncn3c4ccc5[nH]ncc5c4c(=O)c1c23 [Compound (IV)] |  | > 5000 | 302 | 2170 |

| Compound | EC50 (MV-4-11) [nM] | EC50 (BaF3-D835N) [nM] | IC50 [1] [nM] | EC50 (RPS6KA4 (MSK2)) [nM] | EC50 (PRKCN (PKD3, PRKD3)) [nM] | EC50 (STK4 (MST1)) [nM] |
| --- | --- | --- | --- | --- | --- | --- |
| CCN(CC)CCNc1ccc2ncn3c4ccc(O)cc4c(=O)c1c23 [Symadex, 5-(2-(diethylamino)ethylamino)-8-hydroxy-6H-imidazo[4,5,1-de]acridin-6-one, reference compound] | 13.1 | 14.3 |  | > 5000 | 221 | > 5000 |
